Laboratory results from ChEMBL document CHEMBL1137424, “Array synthesis of progesterone receptor antagonists: 3-aryl-1,2-diazepines” (Bioorg Med Chem Lett, 2006).

Columns and labels:
[1] = target: T1, Progesterone receptor (Homo sapiens, UniProt P06401); assay: Binding affinity at PR by fluorescence binding assay
T1 sequence (P06401 whole entry): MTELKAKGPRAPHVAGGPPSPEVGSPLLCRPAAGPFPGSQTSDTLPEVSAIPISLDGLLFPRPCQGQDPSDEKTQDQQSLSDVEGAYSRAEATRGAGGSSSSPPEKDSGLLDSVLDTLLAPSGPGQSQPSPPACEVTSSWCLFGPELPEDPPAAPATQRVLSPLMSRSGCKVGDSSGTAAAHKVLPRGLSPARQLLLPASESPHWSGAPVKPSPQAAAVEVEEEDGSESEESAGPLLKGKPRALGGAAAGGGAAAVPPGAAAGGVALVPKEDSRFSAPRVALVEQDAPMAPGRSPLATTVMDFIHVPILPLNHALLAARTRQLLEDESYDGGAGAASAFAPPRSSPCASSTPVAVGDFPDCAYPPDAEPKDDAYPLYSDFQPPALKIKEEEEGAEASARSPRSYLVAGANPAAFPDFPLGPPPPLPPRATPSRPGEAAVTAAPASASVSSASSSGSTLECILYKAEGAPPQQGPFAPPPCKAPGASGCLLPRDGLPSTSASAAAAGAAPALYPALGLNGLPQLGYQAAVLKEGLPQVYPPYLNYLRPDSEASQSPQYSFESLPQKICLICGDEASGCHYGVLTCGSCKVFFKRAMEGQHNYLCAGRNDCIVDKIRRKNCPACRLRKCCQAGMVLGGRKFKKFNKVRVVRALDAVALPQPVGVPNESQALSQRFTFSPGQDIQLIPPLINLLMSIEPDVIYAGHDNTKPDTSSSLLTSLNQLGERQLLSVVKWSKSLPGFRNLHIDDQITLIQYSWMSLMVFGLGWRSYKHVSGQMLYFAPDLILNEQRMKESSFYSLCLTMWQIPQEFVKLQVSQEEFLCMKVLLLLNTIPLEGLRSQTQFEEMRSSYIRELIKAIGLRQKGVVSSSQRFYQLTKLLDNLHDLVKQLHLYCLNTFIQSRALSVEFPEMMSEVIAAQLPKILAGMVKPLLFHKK

[2] = target: T1, Progesterone receptor; assay: Antagonist activity against PR beta-mediated transactivation of MMTV luciferase reporter gene in BacMam transduced progesterone-stimulated CV1 cells; format: functional, cell-based, CV-1

SMILES	Ki [1] [nM]	IC50 [2] [nM]
O=S(=O)(c1ccc(Cl)s1)N1CCCCC(c2ccccc2Cl)=N1	200	631
O=S(=O)(c1ccc(Cl)s1)N1CCCCC(c2ccc(Cl)c(Cl)c2)=N1	39.8	–
O=S(=O)(c1ccc(Br)s1)N1CCCCC(c2ccc(Cl)c(Cl)c2)=N1	25.1	316
O=S(=O)(c1ccc(Br)s1)N1CCCCC(c2cccc(Br)c2)=N1	63.1	251
O=S(=O)(c1cccc(Cl)c1)N1CCCCC(c2ccc(Cl)cc2)=N1	631	1260
O=[N+]([O-])c1ccc(C2=NN(S(=O)(=O)c3ccc(OC(F)(F)F)cc3)CCCC2)cc1	50.1	158
O=S(=O)(c1ccc(Cl)cc1)N1CCCCC(c2cccc(F)c2)=N1	794	501
Cc1c(Cl)cccc1S(=O)(=O)N1CCCCC(c2cccc(Cl)c2)=N1	316	2000
O=S(=O)(c1ccc(Cl)cc1Cl)N1CCCCC(c2ccc(Cl)c(Cl)c2)=N1	50.1	200
N#Cc1ccc(C2=NN(S(=O)(=O)c3ccccc3F)CCCC2)cc1	1000	398
N#Cc1ccc(C2=NN(S(=O)(=O)c3ccc(Br)s3)CCCC2)cc1	63.1	–
